Data: article PMC8684776, “Discovery and characterization of potent And‐1 inhibitors for cancer treatment” (Clinical and Translational Medicine, 2021)

Assays:
IGROV1 CR xenografts = assay: Cisplatin resistant IGROV1 CR xenograft in nude mice; type: in vivo, mouse
IGROV1 cells = assay: Flow cytometry cell cycle analysis (propidium iodide); type: cell-based, human; settings: 1 µM, FACS
Description: And‐1 is involved in DNA replication in the S‐phase and is required for the S‐phase progression.[15] We assumed that And‐1 inhibitors should be able to inhibit DNA replication by targeting And‐1.
Supplementary Figure S1. Identification of novel And-1 inhibitors. […]
Molecular weight of each compound was indicated. (C) Flow cytometry

And‐1 [1] = molecular target: T1, And‐1 (Homo sapiens, UniProt O75717); assay: Cellular thermal shift assay; type: binding; settings: IGROV1 cells, higher temperature, compared to DMSO
T1 construct: expressed in transfected cells
T1 sequence (O75717 1-1129): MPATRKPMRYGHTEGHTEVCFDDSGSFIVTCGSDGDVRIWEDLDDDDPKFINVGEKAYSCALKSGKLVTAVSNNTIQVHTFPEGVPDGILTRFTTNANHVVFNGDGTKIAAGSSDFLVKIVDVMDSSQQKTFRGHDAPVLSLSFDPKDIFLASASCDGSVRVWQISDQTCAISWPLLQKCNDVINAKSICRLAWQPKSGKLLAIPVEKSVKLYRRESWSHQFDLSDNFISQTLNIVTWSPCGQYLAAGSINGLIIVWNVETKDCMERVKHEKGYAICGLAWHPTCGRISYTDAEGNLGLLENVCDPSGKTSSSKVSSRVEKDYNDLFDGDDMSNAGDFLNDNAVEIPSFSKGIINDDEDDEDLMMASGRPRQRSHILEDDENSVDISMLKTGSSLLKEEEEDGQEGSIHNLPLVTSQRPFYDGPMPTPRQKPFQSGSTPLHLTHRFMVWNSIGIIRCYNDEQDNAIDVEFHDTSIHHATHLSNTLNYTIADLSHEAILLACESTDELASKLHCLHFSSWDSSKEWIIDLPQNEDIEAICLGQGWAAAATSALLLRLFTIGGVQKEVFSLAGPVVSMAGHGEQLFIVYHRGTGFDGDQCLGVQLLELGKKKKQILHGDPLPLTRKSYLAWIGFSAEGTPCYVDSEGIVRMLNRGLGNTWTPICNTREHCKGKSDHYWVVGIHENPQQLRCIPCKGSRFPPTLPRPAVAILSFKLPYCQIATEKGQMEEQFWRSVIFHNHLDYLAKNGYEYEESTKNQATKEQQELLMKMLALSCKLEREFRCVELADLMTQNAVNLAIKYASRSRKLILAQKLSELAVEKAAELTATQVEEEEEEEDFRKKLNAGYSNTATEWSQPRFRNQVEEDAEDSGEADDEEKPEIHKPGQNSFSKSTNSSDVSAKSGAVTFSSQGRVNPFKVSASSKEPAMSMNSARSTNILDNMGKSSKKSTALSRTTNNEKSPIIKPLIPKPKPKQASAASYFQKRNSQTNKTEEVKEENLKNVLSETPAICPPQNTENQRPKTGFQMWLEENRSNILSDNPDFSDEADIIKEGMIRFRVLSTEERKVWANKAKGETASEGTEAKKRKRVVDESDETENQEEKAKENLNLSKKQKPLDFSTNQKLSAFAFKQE

And‐1 [2] = molecular target: T1, And‐1; assay: Immunoblot of And‐1 expression in IGROV1 cells; type: cell-based; settings: read-out: IC50, And‐1 expression
Description: The assay was as previously described.[45]
To evaluate whether And‐1 is required for tumor survival, we examined the dependence of a broad range of tumor cells on And‐1 by using dependency score analysis from DepMap (https://depmap.org/portal/). […] To identify And‐1 specific pharmacologic inhibitor, we established an HTS assay to identify small molecules that can inhibit And‐1 by inducing its degradation. To this end, we first established two stable cell lines, HEK293T‐And‐1‐Luc expressing And‐1 protein fused to a luciferase reporter gene, and HEK293T‐Luc expressing luciferase only (Figure 1B). HEK293T‐And‐1‐Luc cells allow us to monitor And‐1 protein levels by measuring luciferase activity in a high‐throughput manner. Using these cell lines, we conducted a screening for And‐1 inhibitors against a LOPAC small molecule library by using a quantitative HTS (qHTS) as we described previously.[46]
(A) Dependency score of WDHD1/And‐1 analyzed by DepMap. […] (B) Establishment of HEK293T‐And‐1‐Luc and HEK293T‐Luc cells for the high‐throughput screen (HTS). (C) Schematic diagram of quantitative HTS (qHTS) for And‐1 inhibitors. (D) Immunoblot analyses to detect And‐1 expression in IGROV1 cells treated with resveratrol at indicated concentrations. (E) Chemical structures of resveratrol and its three analogs as indicated. (F) Left, immunoblot analyses to detect And‐1 expression in IGROV1 cells treated with And‐1 inhibitors at the indicated concentration. Right, quantification of And‐1 expression shown in the left panel.

For `OB1OCc2cc(/C=C/c3ccc(Cl)c(Cl)c3)ccc21` [CH3, (E)‐5‐(3,4‐dichlorostyryl)benzo[c][1,2]oxaborol‐1(3H)‐ol], the “expression of And‐1 in tumours (IHC)” value (IGROV1 CR xenografts) was “suppressed expression of And‐1 in tumours”, the “resistant tumour growth, combination with cisplatin vs cisplatin alone” value (IGROV1 CR xenografts; cisplatin 8 mg/kg + CH3 20 mg/kg or BZA 2 mg/kg, intraperitoneal, 3 weeks) was “significantly reduced resistant tumour growth” and the “percentage of cells in the S‐phase” value (IGROV1 cells) was “reduced the percentage of cells in the S‐phase”. For the same compound, the “thermal stability of And‐1 protein” value (And‐1 [1]) was “stabilized” and the DC50 (And‐1 [2]) was 2.08 µM.
